How the values were obtained:
Kelly cells = experiment: Cellular proliferation assay (ATP-Lite), Kelly cells; format: cell-based, human; details: for Cell Prolif (%) 1 μM 72 h: PNA 1 μM; for Cell Prolif. (%) 5 μM 72 h: PNA 5 μM; for Cell Prolif. (%) 10 μM 72 h: PNA 10 μM; for Cell Prolif (%) 2,5 μM 72 h: PNA 2,5 μM; for Cell Prolif. (%): Table 1, treated vs untreated control cells; for Kelly % cell prol.: Table 6
Method in brief: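 Kelly cells seeded at 5×10^3/well in OPTI-MEM with 4% FBS and 2 mM L-glutamine, in triplicate. PNA oligonucleotides at 1, 2.5, 5 or 10 μM. Viability by ATP-Lite luminescence at 48, 72, 96 and 168 h, as ratio to untreated controls.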

MYCN gene = experiment: QT-PCR, MYCN mRNA in H69 cells; format: cell-based, human; details: Table 6
Experimental: For the purpose of assessing the ability of the oligonucleotides of the present invention to modulate the expression of the target genes, their ability to reduce the quantity of messenger RNA was analyzed using the Real-Time PCR technique.
For this purpose, use was made of 24-well plates, which were seeded with 5.0×10^4 cells with 0.3 ml of OPTI-MEM (GIBCO BRL) medium, 4% FBS and 2 mM L-glutammine (experiments in triplicate) per well.
The cells were incubated for 24 hours at 37° C., in an atmosphere containing 5% CO2 to permit adherence to the base of the wells.
For each well, the oligonucleotides were analyzed at the following final concentrations: • the antisense oligonucleotides siRNA and siRNA gapmer (i.e. the oligonucleotides containing one or more monomers of chemically modified nucleic acids at the 3′ or 5′ end, while in the central portion they have monomers of nucleic acids that have not been modified or have been modified at the level of the phosphodiester bond as a phosphorothioate bond) were used at 200 nM; • the antisense oligonucleotides containing phosphorothioate DNA monomers, the RNA antigene oligonucleotides (agRNA) and the oligonucleotides containing DNA monomers and LNA monomers were used at 10 μM; • the morpholino oligonucleotides were used at a concentration of 1 μM, and • the PNA oligonucleotides were administered at a concentration of 1 μM.
The cells were treated with the oligonucleotides, adding FBS up to 4% 6 hours after administration of the same. After 24 hours the total RNA was extracted from each well and purified using the RNeasy Mini Kit (QIAGEN).
Assays were performed on 8 cell lines obtained from 5 different human tumours which are correlated with MYCN expression, i.e.: • as a neuroblastoma model use was made of the cell lines Kelly, IMR-32 (where the MYCN gene is amplified and superexpressed) and SKNBE2c and LAN1 (where the MYCN gene is amplified and superexpressed and the p53 gene is mutated); • as a rabdomiosarcoma model use was made of the cell line RH30, where the MYCN gene is amplified and superexpressed; • as a Wilms' tumour model use was made of the cell line WiT49, where the MYCN gene is amplified and superexpressed; • as a retinoblastoma model use was made of the cell line Y79, where the MYCN gene is amplified and superexpressed; and • as a model of small cell lung cancer use was made of the cell line H69 where the MYCN gene is amplified and superexpressed.
As a control, use was made of the same cell lines as listed above treated with sterile water instead of oligonucleotides. Each RNA sample was quantified (in duplicate) using a NanoDrop ND-1000 spectrophotometer (NanoDrop Technologies). The first strand of cDNA was produced using the cDNA Synthesis Kit for RT-PCR (Roche). For the cDNA synthesis reaction a total of 1 μg of RNA was used. For the real-time PCR, 10 ng of cDNA in a final volume of 20 μl was used with SYBR Green Master Mix 2× (Applied Biosystems) (3 identical experiments were conducted in triplicate). Two housekeeping genes were used as positive controls: GAPDH and beta-actin (ACTB).
The conditions of the QT-PCR reaction were: 10 min at 95° C., 20 sec at 95° C., and 30 sec at 60° C., for 50 cycles.
The PNAs having SEQ ID NO: 1-12 were also tested on different cell lines which overexpress MYCN (Kelly, SKNBE2c, RH30, WiT49, WERI-Rb1 1 and H69). The results are shown in Table 6 and confirm the selectivity and specificity of the inhibition effect of the PNAs on the product of protein translation of the MYCN gene.
The oligonucleotides were tested in vitro (at a concentration of 2.5 μM) to determine their ability to inhibit the transcription of the gene they are directed against by measuring the levels of the gene messenger in cellular models in which the gene of interest is overexpressed. The methods used are the ones described in example 1. […]

Substance: SEQ ID NO: 12: PNA antigene oligonucleotide TGTCTGGACGCGCTGG directed against MYCN (all peptide nucleic acid (PNA))
- Cell Prolif (%) 1 μM 72 h (Kelly cells): 84%
- Cell Prolif. (%) 5 μM 72 h (Kelly cells): 40%
- Cell Prolif. (%) 10 μM 72 h (Kelly cells): 16%
- Cell Prolif (%) 2,5 μM 72 h (Kelly cells): 60%
- Cell Prolif. (%) (Kelly cells): 69%
- Kelly % cell prol. (Kelly cells): 65%
- H69 % mRNA (MYCN gene): 40%

Substance: SEQ ID NO: 5: PNA antigene oligonucleotide GCTGGGTGGATGCGGG directed against MYCN (PNA backbone, chemistry not fully specified)
- Cell Prolif (%) 1 μM 72 h (Kelly cells): 79%
- Cell Prolif. (%) 5 μM 72 h (Kelly cells): 27%
- Cell Prolif. (%) 10 μM 72 h (Kelly cells): 5%
- Cell Prolif (%) 2,5 μM 72 h (Kelly cells): 53%
- Cell Prolif. (%) (Kelly cells): 53%
- Kelly % cell prol. (Kelly cells): 53%
- (Kelly) Cell Prolif. % (Kelly cells; Table 7, SEQ ID NO: 5 and guanine-group mutants): 53%
- H69 % mRNA (MYCN gene): 54%

Substance: SEQ ID NO: 2: PNA antigene oligonucleotide GGGTGGATGCGGGGGG directed against MYCN (PNA backbone, chemistry not fully specified)
- Cell Prolif (%) 1 μM 72 h (Kelly cells): 74%
- Cell Prolif. (%) 5 μM 72 h (Kelly cells): 12%
- Cell Prolif. (%) 10 μM 72 h (Kelly cells): 2%
- Cell Prolif (%) 2,5 μM 72 h (Kelly cells): 32%
- Cell Prolif. (%) (Kelly cells): 32%
- Kelly % cell prol. (Kelly cells): 32%
- H69 % mRNA (MYCN gene): 58%

Substance: SEQ ID NO: 11: PNA antigene oligonucleotide GGGAACTGTGTTGGAG directed against MYCN (PNA backbone, chemistry not fully specified)
- Cell Prolif. (%) (Kelly cells): 68%
- Kelly % cell prol. (Kelly cells): 64%
- H69 % mRNA (MYCN gene): 41%

Substance: SEQ ID NO: 6: PNA antigene oligonucleotide TGGACGCGCTGGGTGG directed against MYCN (PNA backbone, chemistry not fully specified)
- Cell Prolif (%) 1 μM 72 h (Kelly cells): 82%
- Cell Prolif. (%) 5 μM 72 h (Kelly cells): 35%
- Cell Prolif. (%) 10 μM 72 h (Kelly cells): 13%
- Cell Prolif (%) 2,5 μM 72 h (Kelly cells): 59%
- Cell Prolif. (%) (Kelly cells): 54%
- Kelly % cell prol. (Kelly cells): 54%
- H69 % mRNA (MYCN gene): 55%

Substance: SEQ ID NO: 9: PNA antigene oligonucleotide CCCTGCAGTCGGCGGG directed against MYCN (all peptide nucleic acid (PNA))
- Cell Prolif (%) 1 μM 72 h (Kelly cells): 86%
- Cell Prolif. (%) 5 μM 72 h (Kelly cells): 42%
- Cell Prolif. (%) 10 μM 72 h (Kelly cells): 20%
- Cell Prolif (%) 2,5 μM 72 h (Kelly cells): 64%
- Cell Prolif. (%) (Kelly cells): 64%
- Kelly % cell prol. (Kelly cells): 60%
- H69 % mRNA (MYCN gene): 50%

Substance: SEQ ID NO: 4: PNA antigene oligonucleotide GTCGGCGGGAGGTAAG directed against MYCN (PNA backbone, chemistry not fully specified)
- Cell Prolif (%) 1 μM 72 h (Kelly cells): 78%
- Cell Prolif. (%) 5 μM 72 h (Kelly cells): 21%
- Cell Prolif. (%) 10 μM 72 h (Kelly cells): 3%
- Cell Prolif (%) 2,5 μM 72 h (Kelly cells): 48%
- Cell Prolif. (%) (Kelly cells): 48%
- Kelly % cell prol. (Kelly cells): 48%
- H69 % mRNA (MYCN gene): 55%

Substance: SEQ ID NO: 8: PNA antigene oligonucleotide GTCTGGACGCGCTGGG directed against MYCN (all peptide nucleic acid (PNA))
- Cell Prolif (%) 1 μM 72 h (Kelly cells): 80%
- Cell Prolif. (%) 5 μM 72 h (Kelly cells): 32%
- Cell Prolif. (%) 10 μM 72 h (Kelly cells): 11%
- Cell Prolif (%) 2,5 μM 72 h (Kelly cells): 57%
- Cell Prolif. (%) (Kelly cells): 59%
- Kelly % cell prol. (Kelly cells): 59%
- H69 % mRNA (MYCN gene): 56%

Substance: SEQ ID NO: 10: PNA antigene oligonucleotide CGGCCGCGGGCCGCCA directed against MYCN (PNA backbone, chemistry not fully specified)
- Cell Prolif. (%) (Kelly cells): 65%
- Kelly % cell prol. (Kelly cells): 64%
- H69 % mRNA (MYCN gene): 41%

Substance: SEQ ID NO: 7: PNA antigene oligonucleotide CGCGCTGGGTGGATGC directed against MYCN (all peptide nucleic acid (PNA))
- Cell Prolif (%) 1 μM 72 h (Kelly cells): 80%
- Cell Prolif. (%) 5 μM 72 h (Kelly cells): 31%
- Cell Prolif. (%) 10 μM 72 h (Kelly cells): 8%
- Cell Prolif (%) 2,5 μM 72 h (Kelly cells): 54%
- Cell Prolif. (%) (Kelly cells): 57%
- Kelly % cell prol. (Kelly cells): 57%
- H69 % mRNA (MYCN gene): 55%

Substance: SEQ ID NO: 1: PNA ATGCCGGGCATGATCT against MYCN; subject of patent EP 1618195, control sequence used for comparison (all peptide nucleic acid (PNA)) [reference compound]
- Cell Prolif (%) 1 μM 72 h (Kelly cells): 89%
- Cell Prolif. (%) 5 μM 72 h (Kelly cells): 50%
- Cell Prolif. (%) 10 μM 72 h (Kelly cells): 24%
- Cell Prolif (%) 2,5 μM 72 h (Kelly cells): 66%
- Cell Prolif. (%) (Kelly cells): 70%
- Kelly % cell prol. (Kelly cells): 66%
- H69 % mRNA (MYCN gene): 40%

Substance: SEQ ID NO: 3: PNA antigene oligonucleotide GATGCGGGGGGCTCCT directed against MYCN (PNA backbone, chemistry not fully specified)
- Cell Prolif (%) 1 μM 72 h (Kelly cells): 78%
- Cell Prolif. (%) 5 μM 72 h (Kelly cells): 19%
- Cell Prolif. (%) 10 μM 72 h (Kelly cells): 3%
- Cell Prolif (%) 2,5 μM 72 h (Kelly cells): 41%
- Cell Prolif. (%) (Kelly cells): 41%
- Kelly % cell prol. (Kelly cells): 41%
- H69 % mRNA (MYCN gene): 55%
